From patent EP4603105A1, “PHARMACEUTICAL COMPOSITION CONTAINING CYCLIC COMPOUND HAVING SELECTIVE KRAS INHIBITORY EFFECT AGAINST HRAS AND NRAS” (CHUGAI SEIYAKU KABUSHIKI KAISHA, priority 2022, dated 2024)
*1 amine or outer side, *2 acyl side, *3 side chain or, on linkers, in order; H or OH if unused. Where a SMILES comes first, the peptide text is derived from it. Bridges are numbered along the chain shown (N, C = ends). [ ]: non-standard residue; d: D form. The star is where a group is joined. ξ: configuration not given here. hPhe(3-Cl-4-CF3) = N[C@@H](CCc1ccc(C(F)(F)F)c(Cl)c1)C(=O)O; NPrPhe(4-CF3) = CCCN[C@@H](Cc1ccc(C(F)(F)F)cc1)C(=O)O; X27 = COCCCN([C@@H](Cc1ccc(C)cc1)C(=O)[*:2])[*:1]; NMePhe(4-F) = CN[C@@H](Cc1ccc(F)cc1)C(=O)O; NMeGly(cPent) = CN[C@H](C(=O)O)C1CCCC1; Pro(4,4-F2) = O=C(O)[C@@H]1CC(F)(F)CN1; NMeD = CN[C@@H](CC(=O)O)C(=O)O; NMeL = CN[C@@H](CC(C)C)C(=O)O; ξNMeD = CNC(CC(=O)O)C(=O)O; Morpholide = C1CN(*)CCO1; NMeA = CN[C@@H](C)C(=O)O; Ac5c = NC1(C(=O)O)CCCC1; Aze = O=C(O)[C@@H]1CCN1; Ac4c = NC1(C(=O)O)CCC1; ξP = O=C(O)C1CCCN1; Sar = CNCC(=O)O

Columns and labels:
[1] = biological target: GDP-bound NRAS wild-type protein (Homo sapiens, UniProt P01111); test: Binding to NRAS by surface plasmon resonance (SPR), KD and KD ratio to KRAS
Sequence of GDP-bound NRAS wild-type protein (P01111 whole entry): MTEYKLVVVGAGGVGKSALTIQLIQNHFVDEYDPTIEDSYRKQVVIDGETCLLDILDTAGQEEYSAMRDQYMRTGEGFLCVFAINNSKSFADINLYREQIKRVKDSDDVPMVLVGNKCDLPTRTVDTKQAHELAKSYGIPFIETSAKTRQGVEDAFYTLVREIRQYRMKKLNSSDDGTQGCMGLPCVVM
In short: (§1)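 Compound binding is evaluated by SPR single-cycle kinetics, with concentrations added intermittently from low to high for 75 s each. Target surfaces carry GDP-loaded biotinylated Avi-RAS at about 100–300 RU, regenerated after each cycle; temperature 30°C. A 1:1 binding model gives KD.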

[2] = tested on: human lung cancer strain NCI-H441; format: cell-based
In short: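 Proliferation was scored by […] measured after the reagent was added to cultures kept at 37°C in 5% carbon dioxide.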

HRAS wild-type protein = HRAS wild-type protein (Homo sapiens, UniProt P01112); test: Binding to HRAS by surface plasmon resonance (SPR), KD and KD ratio to KRAS
Sequence of HRAS wild-type protein (P01112 whole entry): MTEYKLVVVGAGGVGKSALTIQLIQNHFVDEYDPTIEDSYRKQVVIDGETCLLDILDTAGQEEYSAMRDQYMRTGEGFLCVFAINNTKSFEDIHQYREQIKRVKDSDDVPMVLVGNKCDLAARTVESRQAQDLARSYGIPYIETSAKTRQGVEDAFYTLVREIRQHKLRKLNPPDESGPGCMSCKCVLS
In short: as §1

[3] = ratio of the KD value with respect to GDP-bound NRAS wild-type protein to the KD value with respect to KRAS
[4] = ratio of the KD value with respect to HRAS wild-type protein to the KD value with respect to KRAS
[5] = ratio of KD for GDP-bound NRAS wild-type protein to KD for KRAS
[6] = ratio of KD for HRAS wild-type protein to KD for KRAS
[7] = ratio of KD value for GDP-bound NRAS wild-type protein to KD value for KRAS (SPR)
[8] = ratio of KD value for HRAS wild-type protein to KD value for KRAS (SPR)

SMILES	NRAS /KRAS [1, 3]	IC50 [2] [nM]	HRAS /KRAS (HRAS wild-type protein; [4])	NRAS /KRAS [1, 5]	HRAS /KRAS (HRAS wild-type protein; [6])	NRAS /KRAS [1, 7]	HRAS /KRAS (HRAS wild-type protein; [8])
C#CC[C@H]1C(=O)N[C@@H]([C@@H](C)CC)C(=O)N(C)CC(=O)N(C)[C@H]2C/C=C\CCN(C2=O)[C@@H](Cc2ccc(C(F)(F)F)cc2)C(=O)N(C)CC(=O)N[C@@H](CCc2ccc(C(F)(F)F)c(OC)c2)C(=O)N2C[C@@H](C)C[C@H]2C(=O)NC2(CC(C)(C)C2)C(=O)N(C)[C@@H](C2CCCC2)C(=O)N(C)[C@H](C(=O)N(C)CC)CC(=O)N1C [PP2055]	A (a compound having 10 or more and less than 20 is denoted as A)	16.1	B (a compound having 3 or more and less than 10 is denoted as B)	–	–	–	–
CCCN1C(=O)CN(C)C(=O)CN(C)C(=O)[C@H]([C@@H](C)CC)NC(=O)[C@H](CC(C)C)N(C)C(=O)CC(C(=O)N2CCOCC2)N(C)C(=O)[C@H](C2CCCC2)N(C)C(=O)C2(CCCC2)NC(=O)[C@@H]2CCCN2C(=O)[C@H](CCc2ccc(C(F)(F)F)c(Cl)c2)NC(=O)C2CCCN2C(=O)[C@@H]1Cc1ccc(C(F)(F)F)cc1 (stereo partly drawn) [PP0149] ([NMeL]I[Sar][Sar][NPrPhe(4-CF3)][ξP][hPhe(3-Cl-4-CF3)]P[Ac5c][NMeGly(cPent)][ξNMeD]-Morpholide; lactam N-11)	–	317	–	C (A compound having a KD ratio of 0.1 or more and less than 3 is denoted as C)	B (a compound having 3 or more and less than 10 is denoted as B)	–	–
CCCN1C(=O)[C@@H]2CCN2C(=O)[C@H](C)N(C)C(=O)[C@H]([C@@H](C)CC)NC(=O)[C@H](CC(C)C)N(C)C(=O)C[C@@H](C(=O)N2CCOCC2)NC(=O)[C@H](C2CCCC2)N(C)C(=O)C2(CCCC2)NC(=O)[C@@H]2CC(F)(F)CN2C(=O)[C@H](CCc2ccc(C(F)(F)F)c(Cl)c2)NC(=O)CN(C)C(=O)[C@@H]1Cc1ccc(C(F)(F)F)cc1 [PP0345] ([NMeL]I[NMeA][Aze][NPrPhe(4-CF3)][Sar][hPhe(3-Cl-4-CF3)][Pro(4,4-F2)][Ac5c][NMeGly(cPent)]D-Morpholide; lactam N-11)	–	54.9	–	C (A compound having a KD ratio of 0.1 or more and less than 3 is denoted as C)	B (a compound having 3 or more and less than 10 is denoted as B)	–	–
CCCN(C)C(=O)[C@@H]1CC(=O)N(C)[C@@H](CC(F)F)C(=O)N[C@@H]([C@@H](C)CC)C(=O)N(C)CC(=O)N(C)[C@H]2C/C=C\CCN(C2=O)[C@@H](Cc2ccc(C(F)(F)F)cc2)C(=O)N(C)CC(=O)N[C@@H](CCc2cc(F)c(C(F)(F)F)c(F)c2)C(=O)N2C[C@H](OCC)C[C@H]2C(=O)NC2(CC(C)(C)C2)C(=O)N(C)[C@@H](C2CCCC2)C(=O)N1C [PP2030]	A (a compound having 10 or more and less than 20 is denoted as A)	4.5	A (a compound having 10 or more and less than 20 is denoted as A)	–	–	–	–
CCO[C@@H]1C[C@H]2C(=O)NC3(CC=CC3)C(=O)N(C)[C@@H](C3CCCC3)C(=O)N(CC)[C@H](C(=O)N3CCOCC3)CC(=O)N(C)[C@@H](CC(C)C)C(=O)N[C@@H]([C@@H](C)CC)C(=O)N(C)CC(=O)N(C)[C@H]3CCCCCN(C3=O)[C@@H](Cc3ccc(C(F)(F)F)cc3)C(=O)N(C)CC(=O)N[C@@H](CCc3cc(F)c(C(F)(F)F)c(F)c3)C(=O)N2C1 [PP0956]	–	690	–	A (a compound having 10 or more and less than 20 is denoted as A)	A (a compound having 10 or more and less than 20 is denoted as A)	–	–
CCO[C@@H]1C[C@H]2C(=O)N(C)C3(CCC3)C(=O)N(C)[C@@H](C3CCCC3)C(=O)N(C)[C@H](C(=O)N(C)C)CC(=O)N(C)[C@@H](CC3CC3)C(=O)N[C@@H]([C@@H](C)CC)C(=O)N3CCC[C@H]3C(=O)N(C)[C@H]3C/C=C\CCN(C3=O)[C@@H](Cc3ccc(C)cc3)C(=O)N(C)CC(=O)N[C@@H](CCc3cc(F)c(C(F)(F)F)c(F)c3)C(=O)N2C1 [PP1797]	–	5.1	–	–	–	A (a compound having 10 or more and less than 20 is denoted as A)	A (a compound having 10 or more and less than 20 is denoted as A)
CCO[C@@H]1C[C@H]2C(=O)NC3(CCCC3)C(=O)N(C)[C@@H](C3CCCC3)C(=O)N(C)[C@H](C(=O)N(C)C)CC(=O)N(C)[C@@H](CC)C(=O)N[C@@H]([C@@H](C)CC)C(=O)N(C)CC(=O)N(C)[C@H]3C/C=C\CCN(C3=O)[C@@H](Cc3ccc(C(F)(F)F)cc3)C(=O)N(C)CC(=O)N[C@@H](CCc3cc(C)c(Cl)c(C)c3)C(=O)N2C1 [PP1823]	–	55.9	–	–	–	A (a compound having 10 or more and less than 20 is denoted as A)	A (a compound having 10 or more and less than 20 is denoted as A)
CC[C@H](C)[C@@H]1NC(=O)[C@H](CC(C)C)N(C)C(=O)C[C@@H](C(=O)N2CCOCC2)N(C)C(=O)[C@H](C2CCCC2)N(C)C(=O)C2(COC2)NC(=O)[C@@H]2CCCN2C(=O)[C@H](CCc2cc(F)c(C(F)(F)F)c(F)c2)NC(=O)CN(C)C(=O)[C@H](Cc2ccc(C(F)(F)F)cc2)N2CCCC[C@@H](C2=O)N(C)C(=O)CN(C)C1=O [PP0563]	B (a compound having 3 or more and less than 10 is denoted as B)	29	B (a compound having 3 or more and less than 10 is denoted as B)	–	–	–	–
CCCN1C(=O)[C@@H]2CCN2C(=O)[C@H](C)N(C)C(=O)[C@H]([C@@H](C)CC)NC(=O)[C@H](CC(C)C)N(C)C(=O)C[C@@H](C(=O)N2CCOCC2)NC(=O)[C@H](C2CCCC2)N(C)C(=O)C2(CCC2)NC(=O)[C@@H]2CCCN2C(=O)[C@H](CCc2ccc(C(F)(F)F)c(Cl)c2)NC(=O)CN(C)C(=O)[C@@H]1Cc1ccc(C(F)(F)F)cc1 [PP0344] ([NMeL]I[NMeA][Aze][NPrPhe(4-CF3)][Sar][hPhe(3-Cl-4-CF3)]P[Ac4c][NMeGly(cPent)]D-Morpholide; lactam N-11)	–	82.9	–	C (A compound having a KD ratio of 0.1 or more and less than 3 is denoted as C)	B (a compound having 3 or more and less than 10 is denoted as B)	–	–
CC[C@H](C)[C@@H]1NC(=O)[C@H](CC(C)C)N(C)C(=O)C[C@@H](C(=O)N2CCOCC2)N(C)C(=O)[C@H](C2CCCC2)N(C)C(=O)C2(CCCC2)NC(=O)[C@@H]2CCCN2C(=O)[C@H](CCc2ccc(C(F)(F)F)c(Cl)c2)NC(=O)CN(C)C(=O)[C@H](Cc2ccc(F)cc2)N(C)C(=O)[C@@H]2CCN2C(=O)[C@H](C)N(C)C1=O [PP0217] ([NMeL]I[NMeA][Aze][NMePhe(4-F)][Sar][hPhe(3-Cl-4-CF3)]P[Ac5c][NMeGly(cPent)][NMeD]-Morpholide; lactam N-11)	–	18.1	–	C (A compound having a KD ratio of 0.1 or more and less than 3 is denoted as C)	C (A compound having a KD ratio of 0.1 or more and less than 3 is denoted as C)	–	–
CC[C@H](C)[C@@H]1NC(=O)[C@H](CC(C)C)N(C)C(=O)C[C@@H](C(=O)N2CCOCC2)N(C)C(=O)[C@H](C2CCCC2)N(C)C(=O)C2(CCCC2)NC(=O)[C@@H]2CCCN2C(=O)[C@H](CCc2ccc(C(F)(F)F)c(Cl)c2)NC(=O)CN(C)C(=O)[C@H](Cc2ccc(C)cc2)N(CCCOC)C(=O)[C@@H]2CCN2C(=O)[C@H](C)N(C)C1=O [PP0093] ([NMeL]I[NMeA][Aze][X27][Sar][hPhe(3-Cl-4-CF3)]P[Ac5c][NMeGly(cPent)][NMeD]-Morpholide; lactam N-11)	–	2.2	–	C (A compound having a KD ratio of 0.1 or more and less than 3 is denoted as C)	B (a compound having 3 or more and less than 10 is denoted as B)	–	–
